Measured values as given in US4710564A, “Anthracycline compounds” (Microbial Chemistry Research Foundation, priority 1985, dated 1987).
Converted amounts (≈) assume the structure as drawn. Read-outs that look alike come from different tables or passages of the source.

Columns and labels:
P 388 leukemia [1] = assay: animal or person; type: in vivo, CDF1 mice; settings: for ED (T/C 130%): Mus musculus, P388, iv, read-out: Dose for T/C = 130%
P 388 leukemia [2] = assay: animal or person; type: in vivo, CDF1 mice; settings: for ED (T/C 130%): Mus musculus, P388, po, read-out: Dose for T/C = 130%
[3] = system: Adriamycin-resistant P 388 leukemia cells (P 388/ADR); assay: cells; type: cell-based; settings: for IC50: Mus musculus, P388, 48 h, read-out: IC50 P388/ADR; for R/S: mouse, 2880 min
P388 leukemia = assay: Antitumor activity against P388 leukemia in mice, i.p. administration (T/C, therapeutic index); type: in vivo, CDF1 mice; settings: for ED (T/C 130%): Mus musculus, P388, ip, read-out: Dose for T/C = 130 %
in vivo = settings: mouse, iv
Lewis lung carcinoma = assay: Tumor growth inhibition against solid tumors (Lewis lung carcinoma); settings: for Tumor growth inhibition: i.v., days 1, 5 and 9, day 13
P 388 leukemia [4] = settings: known from the art; cited from earlier work
[5] = comp. data from Japanese Patent Application Laid-Open Pub. No. 76896/1980; cited from earlier work
[6] = mouse, in vivo, iv, 1 mg/kg/day
[7] = mouse, in vivo, iv, 2 mg/kg/day
[8] = mouse, in vivo, iv, 4 mg/kg/day
[9] = mouse, in vivo, iv, 8 mg/kg/day
[10] = mouse, in vivo, po, 1 mg/kg/day
[11] = mouse, in vivo, po, 2 mg/kg/day
[12] = mouse, in vivo, po, 4 mg/kg/day
[13] = mouse, in vivo, ip, 0.5 mg/kg/day
[14] = mouse, in vivo, ip, 1 mg/kg/day
[15] = mouse, in vivo, ip, 2 mg/kg/day
[16] = mouse, in vivo, ip, 4 mg/kg/day
[17] = mouse, in vivo, po, 8 mg/kg/day
[18] = mouse, in vivo, po, 16 mg/kg/day
[19] = mouse, in vivo, ip, 8 mg/kg/day
[20] = mouse, in vivo, ip, 12 mg/kg/day
[21] = mouse, in vivo, iv, 16 mg/kg/day
[22] = mouse, in vivo, iv, 32 mg/kg/day
[23] = mouse, in vivo, po, 32 mg/kg/day
[24] = mouse, in vivo, ip, 16 mg/kg/day

Compound	ED (T/C 130%) (P 388 leukemia [1]) [mg/kg/day]	Therapeutic index (P 388 leukemia [1]; mouse, in vivo, iv)	T/C (P 388 leukemia [1]; [6])	T/C (P 388 leukemia [1]; [7])	T/C (P 388 leukemia [1]; [8])	T/C (P 388 leukemia [1]; [9])	ED (T/C 130%) (P 388 leukemia [2]) [mg/kg/day]	Therapeutic index (P 388 leukemia [2]; mouse, in vivo, po)	T/C (P 388 leukemia [2]; [10])	T/C (P 388 leukemia [2]; [12])	R/S [3]	ED (T/C 130%) (P388 leukemia) [mg/kg/day]	T/C (P388 leukemia; [13])	T/C (P388 leukemia; [14])	T/C (P388 leukemia; [15])	T/C (P388 leukemia; [16])	LD50 (in vivo) [mg/kg]	T/C (P 388 leukemia [2]; [17])	T/C (P 388 leukemia [2]; [18])	T/C (P388 leukemia; [19])	also measured
CCC1(O)CC(OC2CC(N3CCOCC3)C(O)C(C)O2)c2c(O)c3c(c(O)c2C1O)C(=O)c1cccc(O)c1C3=O (stereo not shown) [3'-deamino-3'-(4-morpholinyl)-R20X2]	0.43	4.7	154	204	194	35	0.58	3.4	164	103	1.22	0.35	150	186	> 246	> 158	3.55				T/C (P 388 leukemia [1]; mouse, in vivo, iv, 0.25 mg/kg/day): 109; T/C (P 388 leukemia [1]; mouse, in vivo, iv, 0.5 mg/kg/day): 136; Solubility: insoluble (Solubility; insoluble in): insoluble in water, hexane, cyclohexane, diethyl ether, and petroleum ether; Solubility: soluble (Solubility; soluble in): Soluble in acidic water, basic water, methanol, ethanol, propanol, acetone, ethyl acetate, and chloroform; toxicity to the heart at dosage level of maximum antitumor activity (heart; dosage level T/C=max): not found to be toxic; T/C (P 388 leukemia [2]; mouse, in vivo, po, 0.25 mg/kg/day): 109; T/C (P 388 leukemia [2]; mouse, in vivo, po, 0.5 mg/kg/day): 120; T/C (P 388 leukemia [2]; [11]): 228; IC50 [3]: 0.011 µg/mL (≈ 0.0188 µM); Therapeutic index (P388 leukemia; mouse, in vivo, ip): 5.7; T/C (P388 leukemia; mouse, in vivo, ip, 0.25 mg/kg/day): 112
CCC1(O)Cc2c(O)c3c(c(O)c2C(OC2CC(N4CCOCC4)C(O)C(C)O2)C1)C(=O)c1c(O)cccc1C3=O (stereo not shown) [3'-deamino-3'-(4-morpholinyl)-R20X]	2.5		104	119	155	151	1.45		111	170		0.75	104	148	177	218	12.3	214	219	> 303	T/C (P 388 leukemia [1]; mouse, in vivo, iv, 12 mg/kg/day): 57; toxicity to the heart at dosage level of maximum antitumor activity (heart; hamster, in vivo): not found to be toxic; T/C (P 388 leukemia [2]; [11]): 146; T/C (P388 leukemia; [20]): 231
CCC1(O)Cc2cc3c(c(O)c2C(OC2CC(N4CCOCC4)C(O)C(C)O2)C1)C(=O)c1c(O)cccc1C3=O (stereo not shown) [3'-deamino-3'-(4-morpholinyl)-R20Y5]	4.9			104	123	148	4.3			127		6.2				104	65	154	191	146	T/C (P 388 leukemia [1]; [21]): 182; T/C (P 388 leukemia [1]; [22]): > 240; T/C (P 388 leukemia [2]; [23]): 263; T/C (P 388 leukemia [2]; mouse, in vivo, po, 64 mg/kg/day): 238; antitumor activity against solid tumors (in words) (Lewis lung carcinoma; Lewis lung carcinoma): antitumor activity comparable to or better than that of Adriamycin against solid tumors; Tumor growth inhibition (Lewis lung carcinoma; 4 mg/kg/day): 9.6%; Tumor growth inhibition (Lewis lung carcinoma; 8 mg/kg/day): 31.0%; Tumor growth inhibition (Lewis lung carcinoma; 16 mg/kg/day): 66.6%; Tumor growth inhibition (Lewis lung carcinoma; 32 mg/kg/day): 91.7%; antitumor activity compared with R20Y5 (in words) (P388 leukemia; comparison with R20Y5 of Japanese Laid-Open 76896/1980): antitumor activity of R20Y5 can be remarkably increased by 3'-deamino-3'-4-morpholinylation; T/C (P388 leukemia; [24]): 175; T/C (P388 leukemia; mouse, in vivo, ip, 32 mg/kg/day): 219; T/C (P388 leukemia; mouse, in vivo, ip, 64 mg/kg/day): 93
CC[C@@]1(O)C[C@H](O[C@H]2C[C@H](N(C)C)[C@H](O[C@H]3C[C@H](O)[C@H](O[C@H]4CCC(=O)[C@H](C)O4)[C@H](C)O3)[C@H](C)O2)c2c(cc3c(c2O)C(=O)c2c(O)cccc2C3=O)[C@H]1C(=O)OC [Aclacinomycin, reference compound]		2.6			121	119		2.1			1.92				111	126		119	131	155	Dose for T/C = 130% (P 388 leukemia [1]; mouse, in vivo, iv): 12.4 mg/kg/day; T/C (P 388 leukemia [1]; [21]): 151; T/C (P 388 leukemia [1]; [22]): 177; T/C (P 388 leukemia [1]; mouse, in vivo, iv, 64 mg/kg/day): 35; Dose for T/C = 130% (P 388 leukemia [2]; mouse, in vivo, po): 15 mg/kg/day; T/C (P 388 leukemia [2]; [23]): 154; IC50 P388/ADR [3]: 0.025 µg/mL (≈ 0.0308 µM); Dose for T/C = 130% (P388 leukemia; mouse, in vivo, ip): 4.4 mg/kg/day; Therapeutic index (P388 leukemia; mouse, in vivo, ip): 3.6; T/C (P388 leukemia; [24]): 182; effectiveness by oral administration (in words) (P 388 leukemia [4]): effective in the case of oral administration
COc1cccc2c1C(=O)c1c(O)c3c(c(O)c1C2=O)C[C@@](O)(C(=O)CO)C[C@@H]3O[C@H]1C[C@H](N)[C@H](O)[C@H](C)O1 [Adriamycin, reference compound]											29.2	< 0.25	177	191	> 217	204				> 256	Tumor growth inhibition (Lewis lung carcinoma; 1 mg/kg/day): 34.5%; Tumor growth inhibition (Lewis lung carcinoma; 2 mg/kg/day): 14.1%; Tumor growth inhibition (Lewis lung carcinoma; 4 mg/kg/day): 64.2%; Tumor growth inhibition (Lewis lung carcinoma; 8 mg/kg/day): 72.8%; IC50 [3]: 0.35 µg/mL (≈ 0.644 µM); T/C (P388 leukemia; [20]): 194
CCC1(O)Cc2cc3c(c(O)c2C(OC2CC(N)C(O)C(C)O2)C1)C(=O)c1c(O)cccc1C3=O (stereo not shown) [R20Y5, 11-deoxy-13-deoxocarminomycin]																					LD50 [5]: 15 mg/kg
